Reference: patent publication US20110059482A1, “Sampling Kit” (priority 2008, published 2011)

Tests used:
[1] = Storage stability / shelf life of antibiotics, tablet and Herogel components; format: physicochemical; settings: in liquid form, at about 8° C. (refrigerator)
Experimental: Background: Herogel is a selective growth medium comprising aztreonam and colistin to inhibit the growth of Enterobacteriaceae. Cefoxitin is added to the medium in order to inhibit the growth of MSSA (Methicillin Sensitive Staphylococcus Aureus). Cefoxitin has a short shelf life if it is added to the medium upon manufacturing of the medium and together with other antibiotics. Tests performed at Karolinska University Hospital Laboratory have shown that the activity of cefoxitin in liquid form is reduced after 14 days at about 8° C. (i.e. in a refrigerator) and that aztreonam and colistin if they are added to the growth medium are active for at least 4 months if stored at a temperature of about 8° C. (i.e. in a refrigerator). In order to prolong the shelf life of the Herogel, cefoxitin is incorporated in the tablet in Batch 1. The hypothesis is that the shelf life of the herogel will be prolonged if the tablet is added immediately after the sampling. The shelf life of the tablet is estimated to about 12 months in room temperature. The other components of the Herogel medium have a documented shelf life of at least 6 months upon storage in a refrigerator.

MSSA = settings: according to the referens group for questions related to antibiotic (RAF); cited from earlier work

- storage time after which the activity is reduced [1]: 14 days
SMILES: CO[C@@]1(NC(=O)Cc2cccs2)C(=O)N2C(C(=O)O)=C(COC(N)=O)CS[C@@H]21 [cefoxitin]
- minimal inhibitory concentration (MIC) for MSSA (MSSA): 4 µg/mL
